According to the supplement of paper PMC6045584:
± gives the standard deviation of the averaged measurements.

Columns and labels:
[1] = compound: T1, COc1ccc(C2=N[C@@H](c3ccc(Cl)cc3)[C@@H](c3ccc(Cl)cc3)N2C(=O)N2CCNC(=O)C2)c(OC(C)C)c1 [NUTLIN3]; experiment: surviving fraction relative to DMSO-only wells; higher = less growth inhibition; details: exposure time: 5 days
Outline: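 Log-phase tumour cell lines were seeded at 250–500 cells per well in 384-well plates. After 24 hours they were exposed continuously for five days to inhibitors at 0.5, 1, 5, 10, 50, 100, 500 and 1000 nM. Viability was read by CellTiter-Glo luminescence after 10 minutes at room temperature, and surviving fraction is luminescence normalised to the median of DMSO-only wells. Each line was screened three times and kept only if replicate Pearson r >0.7 and median Z' >0.3.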

[2] = compound: C=CCNC1=C2C[C@@H](C)C[C@H](OC)[C@H](O)[C@@H](C)/C=C(\C)[C@H](OC(N)=O)[C@@H](OC)/C=C\C=C(/C)C(=O)NC(=CC1=O)C2=O [17-AAG]; experiment: area under dose-response curve of surviving fraction (unscaled, Aref=0) (surviving fraction x log10(nM)); higher = more resistant; details: exposure time: 5 days; dose range 0.5-1000 nM
Outline: (§1)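 Each tumour cell line was screened three times in 384-well plates, receiving eight inhibitor concentrations from 0.5 to 1000 nM for five days. CellTiter-Glo luminescence gave viability, normalised to DMSO-only wells. Using the drc R package, surviving fractions were fitted with 3-parameter logistic dose-response curves, and the unscaled activity area over log10 dose (Aref = 0) was taken as the area under the curve.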

[3] = compound: CCN(CC)CCCCNc1ncc2cc(-c3cc(OC)cc(OC)c3)c(NC(=O)NC(C)(C)C)nc2n1; experiment: as above; details: exposure time: 5 days; dose range 0.5-1000 nM
Outline: as §1

[4] = compound: CC[C@@H](C(=O)[C@@H](C)[C@@H](O)[C@H](C)[C@@H]1O[C@@H]([C@@H](CC)C(=O)O)CC[C@@H]1C)[C@H]1O[C@]2(C=C[C@@H](O)[C@]3(CC[C@@](C)([C@H]4CC[C@](O)(CC)[C@H](C)O4)O3)O2)[C@H](C)C[C@@H]1C [SALINOMYCIN]; experiment: as above; details: exposure time: 5 days; dose range 0.5-1000 nM
Outline: as §1

[5] = compound: CN1CC[C@H](c2c(O)cc(O)c3c(=O)cc(-c4ccccc4Cl)oc23)[C@H](O)C1 [FLAVOPIRIDOL]; experiment: as above; details: exposure time: 5 days; dose range 0.5-1000 nM
Outline: as §1

[6] = compound: COc1cc2c(cc1O)CC[C@@H]1[C@@H]2CC[C@]2(C)[C@@H](O)CC[C@@H]12 [2-METHOXYESTRADIOL]; experiment: as above; details: exposure time: 5 days; dose range 0.5-1000 nM
Outline: as §1

[7] = compound: T1, NUTLIN3; experiment: as above; details: exposure time: 5 days; dose range 0.5-1000 nM
Outline: as §1

[8] = compound: COc1cccc2c1C(=O)c1c(O)c3c(c(O)c1C2=O)C[C@@](O)(C(=O)CO)C[C@@H]3O[C@H]1C[C@H](N)[C@H](O)[C@H](C)O1 [DOXORUBICIN]; experiment: as above; details: exposure time: 5 days; dose range 0.5-1000 nM
Outline: as §1

[9] = compound: CS(=O)(=O)c1ccc(C(=O)Nc2ccc(Cl)c(-c3ccccn3)c2)c(Cl)c1 [VISMODEGIB]; experiment: as above; details: exposure time: 5 days; dose range 0.5-1000 nM
Outline: as §1

[10] = compound: Nc1ncn([C@H]2C[C@H](O)[C@@H](CO)O2)c(=O)n1 [DECITABINE]; experiment: as above; details: exposure time: 5 days; dose range 0.5-1000 nM
Outline: as §1

[11] = compound: O=c1[nH]cc(F)c(=O)[nH]1 [FLUOROURACIL]; experiment: as above; details: exposure time: 5 days; dose range 0.5-1000 nM
Outline: as §1

[12] = compound: Oc1ccc(/C=C/c2cc(O)cc(O)c2)cc1 [RESVERATROL]; experiment: as above; details: exposure time: 5 days; dose range 0.5-1000 nM
Outline: as §1

[13] = compound: CN(C)CC[C@H](CSc1ccccc1)Nc1ccc(S(=O)(=O)NC(=O)c2ccc(N3CCN(Cc4ccccc4-c4ccc(Cl)cc4)CC3)cc2)cc1[N+](=O)[O-] [ABT-737]; experiment: as above; details: exposure time: 5 days; dose range 0.5-1000 nM
Outline: as §1

Test System	surviving fraction ([1]; 0.5 nM)	surviving fraction ([1]; 1 nM)	surviving fraction ([1]; 5 nM)	surviving fraction ([1]; 10 nM)	surviving fraction ([1]; 50 nM)	surviving fraction ([1]; 100 nM)	surviving fraction ([1]; 500 nM)	surviving fraction ([1]; 1000 nM)	area under dose-response curve [2]	area under dose-response curve [3]	area under dose-response curve [4]	area under dose-response curve [5]	area under dose-response curve [6]	area under dose-response curve [7]	area under dose-response curve [8]	area under dose-response curve [9]	area under dose-response curve [10]	area under dose-response curve [11]	area under dose-response curve [12]	area under dose-response curve [13]
HT1080 SOFT TISSUE	1.02 ± 0.019	0.978 ± 0.031	0.998 ± 0.012	1.02 ± 0.018	0.9757 ± 0.0085	0.929 ± 0.01	0.797 ± 0.024	0.58 ± 0.046	2.11	3.39	3.16	2.07	3.11	3.11	1.29	3.25	3.03	3.06	3.35	–
MDAMB453 BREAST	1.02 ± 0.053	1.05 ± 0.029	1.07 ± 0.053	1.08 ± 0.024	1.13 ± 0.083	1.13 ± 0.13	1.04 ± 0.066	1.05 ± 0.035	1.3	3.28	3.04	2.12	3.02	3.54	2.24	3.16	–	3.14	3.63	3.59
RDES SOFT TISSUE	1.25 ± 0.074	1.32 ± 0.076	1.07 ± 0.044	1.18 ± 0.14	1.17 ± 0.13	1 ± 0.17	1.4 ± 0.22	1.25 ± 0.17	2.13	3.98	2.26	2.51	–	3.98	1.97	–	3.9	3.48	4.59	2.58
SAOS2 BONE	1.16 ± 0.028	0.981 ± 0.037	1.13 ± 0.043	1.09 ± 0.048	1.15 ± 0.017	1.2 ± 0.029	1.12 ± 0.033	1.043 ± 0.0023	1.66	3.79	3.15	2.19	–	3.66	1.85	3.12	3.06	2.91	4.04	3.87
SCC003 HEADNECK	1.05 ± 0.12	1.01 ± 0.081	1.03 ± 0.12	1 ± 0.088	1.06 ± 0.062	1.12 ± 0.07	1.09 ± 0.089	1.07 ± 0.13	2.38	3.36	2.91	2.22	–	3.48	2.03	3.24	2.94	3.08	3.64	3.76
SCC36 HEADNECK	1.07 ± 0.15	1.04 ± 0.087	1.16 ± 0.014	1.04 ± 0.03	1.19 ± 0.069	1.17 ± 0.044	1.04 ± 0.1	1.1 ± 0.051	1.66	–	2.7	2.3	–	3.65	1.98	2.89	3.08	2.79	3.87	3.58
SCC47 HEADNECK	1.08 ± 0.082	1.03 ± 0.023	1.14 ± 0.026	1.135 ± 0.0096	1.13 ± 0.051	1.16 ± 0.088	1.07 ± 0.052	1.14 ± 0.099	2.29	3.33	3.07	2.12	3.24	3.66	2.27	3.19	–	3.44	3.79	3.89
SCC90 HEADNECK	1.05 ± 0.051	1.04 ± 0.22	1.13 ± 0.15	1.11 ± 0.23	1.12 ± 0.12	1.02 ± 0.026	0.997 ± 0.098	1.04 ± 0.098	2.31	2.96	2.84	2.25	2.68	3.5	2.36	2.93	3.6	3.17	–	3.56
SG27 HEADNECK	1.01 ± 0.02	1.06 ± 0.12	0.998 ± 0.17	1.19 ± 0.19	0.998 ± 0.064	1 ± 0.062	0.788 ± 0.11	0.668 ± 0.06	2.94	3.03	2.95	2.29	3.61	–	2.61	3.18	3.79	3.48	3.59	–
SG43 HEADNECK	1.11 ± 0.1	0.915 ± 0.071	0.928 ± 0.11	0.772 ± 0.064	0.877 ± 0.14	0.778 ± 0.24	0.806 ± 0.24	0.565 ± 0.1	1.77	3.03	3.03	2.35	2.84	2.8	1.71	–	–	3.27	2.91	2.77
SUM149 BREAST	1.03 ± 0.098	1.12 ± 0.052	1.18 ± 0.053	1.15 ± 0.085	1.08 ± 0.075	1.13 ± 0.11	1.04 ± 0.047	1.01 ± 0.092	1.29	–	2.62	2.09	2.9	3.63	1.11	2.98	2.01	2.9	3.39	3.39
VP229 BREAST	1.16 ± 0.12	1.08 ± 0.21	1.21 ± 0.029	0.944 ± 0.17	0.972 ± 0.065	1.04 ± 0.082	1.13 ± 0.09	0.975 ± 0.037	1.93	3.78	2.4	2.08	3.43	3.5	2.61	3.65	–	2.98	–	3.82
YAMATO SYNOVIAL	1.42 ± 0.029	1.32 ± 0.13	1.43 ± 0.1	1.36 ± 0.1	1.5 ± 0.061	1.41 ± 0.15	1.4 ± 0.086	1.27 ± 0.13	2.65	3.96	2.25	2.38	3.05	4.58	2.03	–	–	3	–	4.34
